Assay: Prodrug to drug conversion half-life in vitro in PBS at pH 7.4 and 37° C. (UPLC-UV-MS)
Type: physicochemical
Conditions: prodrug to parent drug conversion, PBS pH 7.4, 37° C., first order T½
Protocol: The assay was performed to investigate the conversion half-life of prodrug to drug of the prodrugs of the invention.
Peptide stock solutions were prepared by dissolving freeze-dried powder in PBS buffer to a target of 200 μM. PBS-buffer was Dulbecco's Phosphate Buffered Saline without CaCl2 and MgCl2, gibco 14190-094 adjusted to pH=7.4. The pH of the peptide stock solutions was adjusted to 7.4 with 0.02 M HCl or 0.02M NaOH. Samples were filled in Agilent HPLC vials with fixed insert. Vials were capped to prevent evaporation. The HPLC vials were incubated at 37° C. and samples were withdrawn at different time points over a period of 2 weeks, flash frozen at −80° C., and stored at −20° C. until analysis.
Sample analysis was carried out using UPLC coupled to UV detection at 215 nm and MS (UPLC-UV-MS). One μl of sample was injected on to a Waters Acquity UPLC with a flow-through-needle injection system and on to a Waters Acquity CSH C18 column (1*150 mm), with a particle size of 1.7 μm and held at 55° C. A flow-rate of 100 μl/min was delivered with a Binary solvent manager pump having 0.1% formic acid in water as solvent A and 0.1% formic acid in acetonitrile as solvent B. Gradient elution was carried out using 15-32% B from 0 to 4 min followed by 32 to 48% B from 4 to 54 min. […]

Conversion half-life [h] | Compound | half-life (buffer) [h]
168 | N{ε26}-[2-[2-[2-[[2-[2-[2-[[(4S)-4-carboxy-4-(17-carboxyheptadeca-noylamino)butanoyl]amino]ethoxy]ethoxy]acetyl]amino]ethoxy]ethoxy]acetyl]-N{ε}-[(2S)-2-[[(4S)-4-carboxy-4-(17-carboxyheptadecanoylamino)butanoyl]amino]-3-hydroxypropanoyl]Lys-Thz-[Aib8,Arg34]-GLP-1-(7-37)-peptide [Chem. 18] | 
 | CC[C@H](C)[C@H](NC(=O)[C@H](Cc1ccccc1)NC(=O)[C@H](CCC(=O)O)NC(=O)[C@H](CCCCNC(=O)COCCOCCNC(=O)COCCOCCNC(=O)CC[C@H](NC(=O)CCCCCCCCCCCCCCCCC(=O)O)C(=O)O)NC(=O)[C@H](C)NC(=O)[C@H](C)NC(=O)[C@H](CCC(N)=O)NC(=O)CNC(=O)[C@H](CCC(=O)O)NC(=O)[C@H](CC(C)C)NC(=O)[C@H](Cc1ccc(O)cc1)NC(=O)[C@H](CO)NC(=O)[C@H](CO)NC(=O)[C@@H](NC(=O)[C@H](CC(=O)O)NC(=O)[C@H](CO)NC(=O)[C@@H](NC(=O)[C@H](Cc1ccccc1)NC(=O)[C@@H](NC(=O)CNC(=O)[C@H](CCC(=O)O)NC(=O)C(C)(C)NC(=O)[C@H](Cc1c[nH]cn1)NC(=O)[C@@H]1CSCN1C(=O)[C@@H](N)CCCCNC(=O)COCCOCCNC(=O)COCCOCCNC(=O)CC[C@H](NC(=O)CCCCCCCCCOc1cccc(C(=O)O)c1)C(=O)O)[C@@H](C)O)[C@@H](C)O)C(C)C)C(=O)N[C@@H](C)C(=O)N[C@@H](Cc1c[nH]c2ccccc12)C(=O)N[C@@H](CC(C)C)C(=O)N[C@H](C(=O)N[C@@H](CCCNC(=N)N)C(=O)NCC(=O)N[C@@H](CCCNC(=N)N)C(=O)NCC(=O)O)C(C)C [Chem. 8, N{ε26}-[2-[2-[2-[[2-[2-[2-[[(4S)-4-carboxy-4-(17-carboxyheptadeca-noylamino)butanoyl]amino]ethoxy]ethoxy]acetyl]amino]ethoxy]ethoxy]acetyl]-N{ε}-[2-[2-[2-[[2-[2-[2-[[(4S)-4-carboxy-4-[10-(3-carboxyphenoxy)decanoylamino]butanoyl]amino]ethoxy]ethoxy]acetyl]amino]ethoxy]ethoxy]acetyl]Lys-Thz-[Aib8,Arg34]-GLP-1-(7-37)-peptide] | 175

Source: patent publication US20250304645A1, “Prodrugs of GLP-1 Polypeptide and Uses Thereof” (Novo Nordisk A/S, priority 2022, published 2025)
